Results as given in PubChem BioAssay AID248 (DTP/NCI, 2004).
Values joined by “and” are separate entries in the source; they are usually repeats but may differ in a detail not shown here. Equal entries are not always repeated. Toxic doses and inconclusive results are not listed.

System: L1210 leukemia ip in BDF1 mice, survival T/C
Assay: NCI In Vivo Anticancer Drug Screen. Data for tumor model L1210 Leukemia (intraperitoneal) in B6D2F1 (BDF1) mice
Conditions: endpoint: mean survival time, higher = longer survival
How it was run: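 Tumor cells were implanted, animals were treated, and survival was followed. The result divides the treated measurement by the vehicle-control measurement.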

With CC[C@@]1(O)C(=O)OCc2c1cc1n(c2=O)Cc2cc3ccccc3nc2-1 the T/C (dose: 0.05 mg/kg/injection, schedule: Q01DX Z (ip), vehicle: carboxymethylcellulose (CMC)) was 94 % of control, the T/C (dose: 0.1 mg/kg/injection, schedule: Q01DX Z (ip), vehicle: carboxymethylcellulose (CMC)) was 97 % of control and the T/C (dose: 0.12 mg/kg/injection, schedule: Q01DX009 (ip), vehicle: saline) was 105 % of control and 108 % of control. The T/C (dose: 0.12 mg/kg/injection, schedule: Q#A X Z (ip), vehicle: saline) was 122 % of control, the T/C (dose: 0.13 mg/kg/injection, schedule: Q01DX Z (ip), vehicle: water) was 105 % of control and the T/C (dose: 0.2 mg/kg/injection, schedule: Q01DX Z (ip), vehicle: saline) was 118 % of control. The T/C (dose: 0.22 mg/kg/injection, schedule: Q01DX Z (ip), vehicle: water) was 103 % of control, the T/C (dose: 0.22 mg/kg/injection, schedule: Q03DX Z (ip), vehicle: saline) was 103 % of control and the T/C (dose: 0.25 mg/kg/injection, schedule: Q01DX006 (iv), vehicle: saline) was 103 % of control. For the same compound, the T/C (dose: 0.25 mg/kg/injection, schedule: Q01DX009 (ip), vehicle: saline) was 94 % of control, the T/C (dose: 0.25 mg/kg/injection, schedule: Q01DX Z (im), vehicle: saline) was 108 % of control and the T/C (dose: 0.25 mg/kg/injection, schedule: Q01DX Z (sc), vehicle: saline) was 113 % of control. The T/C (dose: 0.25 mg/kg/injection, schedule: Q## X Z (ip), vehicle: saline) was 106 % of control, the T/C (dose: 0.25 mg/kg/injection, schedule: Q#A X Z (ip), vehicle: saline) was 154 % of control and the T/C (dose: 0.33 mg/kg/injection, schedule: Q03DX Z (ip), vehicle: saline) was 111 % of control. The T/C (dose: 0.36 mg/kg/injection, schedule: Q01DX Z (ip), vehicle: water) was 116 % of control, the T/C (dose: 0.5 mg/kg/injection, schedule: Q01DX001 (ip), vehicle: saline) was 107 % of control and the T/C (dose: 0.5 mg/kg/injection, schedule: Q01DX006 (iv), vehicle: saline) was 116 % of control. The T/C (dose: 0.5 mg/kg/injection, schedule: Q01DX009 (ip), vehicle: saline) was 111 % of control, the T/C (dose: 0.5 mg/kg/injection, schedule: Q01DX Z (ip), vehicle: carboxymethylcellulose (CMC)) was 163 % of control and the T/C (dose: 0.5 mg/kg/injection, schedule: Q01DX Z (oral), vehicle: saline) was 120 % of control. The T/C (dose: 0.5 mg/kg/injection, schedule: Q01DX Z (sc), vehicle: saline) was 118 % of control, the T/C (dose: 0.5 mg/kg/injection, schedule: Q03DX Z (ip), vehicle: saline) was 108 % of control and the T/C (dose: 0.6 mg/kg/injection, schedule: Q01DX Z (ip), vehicle: water) was 156 % of control. For the same compound, the T/C (dose: 0.75 mg/kg/injection, schedule: Q01DX009 (ip), vehicle: saline) was 94 % of control and 95 % of control, the T/C (dose: 0.75 mg/kg/injection, schedule: Q03DX Z (ip), vehicle: saline) was 114 % of control and the T/C (dose: 1.0 mg/kg/injection, schedule: Q01DX001 (ip), vehicle: saline) was 107 % of control. For the same compound, the T/C (dose: 1.0 mg/kg/injection, schedule: Q01DX006 (iv), vehicle: saline) was 114 % of control, the T/C (dose: 1.0 mg/kg/injection, schedule: Q01DX009 (ip), vehicle: saline) was 97 % of control and the T/C (dose: 1.0 mg/kg/injection, schedule: Q01DX010 (ip), vehicle: saline) was 153 % of control. For the same compound, the T/C (dose: 1.0 mg/kg/injection, schedule: Q01DX010 (iv), vehicle: saline) was 117 % of control, the T/C (dose: 1.0 mg/kg/injection, schedule: Q01DX Z (ip), vehicle: carboxymethylcellulose (CMC)) was 166 % of control and the T/C (dose: 1.0 mg/kg/injection, schedule: Q01DX Z (ip), vehicle: saline) was 158 % of control. For the same compound, the T/C (dose: 1.0 mg/kg/injection, schedule: Q01DX Z (ip), vehicle: water) was 171 % of control, the T/C (dose: 1.0 mg/kg/injection, schedule: Q01DX Z (oral), vehicle: saline) was 109 % of control and the T/C (dose: 1.0 mg/kg/injection, schedule: Q#A X Z (ip), vehicle: saline) was 185 % of control. For the same compound, the T/C (dose: 1.25 mg/kg/injection, schedule: Q04DX003 (ip), vehicle: Klucel (hydroxypropylcellulose) (HPC)) was 113 % of control, the T/C (dose: 1.5 mg/kg/injection, schedule: Q03DX Z (ip), vehicle: saline) was 120 % of control and the T/C (dose: 1.5 mg/kg/injection, schedule: Q#A X Z (ip), vehicle: saline) was 104 % of control. The T/C (dose: 1.6 mg/kg/injection, schedule: Q01DX Z (ip), vehicle: saline) was 196 % of control, the T/C (dose: 2.0 mg/kg/injection, schedule: Q01DX001 (ip), vehicle: saline) was 100 % of control and 124 % of control and the T/C (dose: 2.0 mg/kg/injection, schedule: Q01DX006 (iv), vehicle: saline) was 109 % of control. The T/C (dose: 2.0 mg/kg/injection, schedule: Q01DX010 (ip), vehicle: saline) was 93 % of control, the T/C (dose: 2.0 mg/kg/injection, schedule: Q01DX Z (im), vehicle: saline) was 94 % of control and 118 % of control and the T/C (dose: 2.0 mg/kg/injection, schedule: Q01DX Z (ip), vehicle: saline) was 122 % of control. For the same compound, the T/C (dose: 2.0 mg/kg/injection, schedule: Q01DX Z (oral), vehicle: saline) was 120 % of control, the T/C (dose: 2.0 mg/kg/injection, schedule: Q07DX Z (ip), vehicle: saline) was 124 % of control and the T/C (dose: 2.0 mg/kg/injection, schedule: Q## X Z (ip), vehicle: saline) was 98 % of control. For the same compound, the T/C (dose: 2.25 mg/kg/injection, schedule: Q#A X Z (ip), vehicle: saline) was 93 % of control, the T/C (dose: 2.5 mg/kg/injection, schedule: Q01DX001 (ip), vehicle: saline) was 116 % of control and 202 % of control and the T/C (dose: 3.0 mg/kg/injection, schedule: Q01DX006 (iv), vehicle: saline) was 120 % of control. For the same compound, the T/C (dose: 3.0 mg/kg/injection, schedule: Q01DX Z (oral), vehicle: saline) was 120 % of control, the T/C (dose: 3.0 mg/kg/injection, schedule: Q03DX Z (ip), vehicle: saline) was 155 % of control and the T/C (dose: 3.2 mg/kg/injection, schedule: Q01DX Z (ip), vehicle: saline) was 121 % of control. The T/C (dose: 4.0 mg/kg/injection, schedule: Q01DX001 (ip), vehicle: saline) was 105 % of control, the T/C (dose: 4.0 mg/kg/injection, schedule: Q01DX010 (iv), vehicle: saline) was 108 % of control and the T/C (dose: 4.0 mg/kg/injection, schedule: Q01DX Z (ip), vehicle: saline) was 97 % of control. For the same compound, the T/C (dose: 4.0 mg/kg/injection, schedule: Q01DX Z (oral), vehicle: saline) was 118 % of control and 119 % of control, the T/C (dose: 4.5 mg/kg/injection, schedule: Q01DX006 (iv), vehicle: saline) was 122 % of control and the T/C (dose: 4.5 mg/kg/injection, schedule: Q01DX Z (im), vehicle: saline) was 117 % of control. The T/C (dose: 4.5 mg/kg/injection, schedule: Q01DX Z (sc), vehicle: saline) was 175 % of control, the T/C (dose: 4.8 mg/kg/injection, schedule: Q01DX Z (ip), vehicle: saline) was 95 % of control and the T/C (dose: 5.0 mg/kg/injection, schedule: Q04DX003 (ip), vehicle: Klucel (hydroxypropylcellulose) (HPC)) was 96 % of control. The T/C (dose: 6.0 mg/kg/injection, schedule: Q03DX Z (ip), vehicle: saline) was 152 % of control, the T/C (dose: 6.5 mg/kg/injection, schedule: Q01DX006 (iv), vehicle: saline) was 170 % of control and the T/C (dose: 6.5 mg/kg/injection, schedule: Q01DX Z (sc), vehicle: saline) was 157 % of control. The T/C (dose: 8.0 mg/kg/injection, schedule: Q01DX001 (ip), vehicle: saline) was 109 % of control, the T/C (dose: 8.6 mg/kg/injection, schedule: Q03DX Z (ip), vehicle: saline) was 194 % of control and the T/C (dose: 9.5 mg/kg/injection, schedule: Q01DX006 (iv), vehicle: saline) was 157 % of control. For the same compound, the T/C (dose: 10.0 mg/kg/injection, schedule: Q04DX003 (ip), vehicle: Klucel (hydroxypropylcellulose) (HPC)) was 110 % of control, the T/C (dose: 13.0 mg/kg/injection, schedule: Q03DX Z (ip), vehicle: saline) was 124 % of control and the T/C (dose: 16.0 mg/kg/injection, schedule: Q07DX Z (ip), vehicle: saline) was 158 % of control and 213 % of control. The T/C (dose: 19.0 mg/kg/injection, schedule: Q03DX Z (ip), vehicle: saline) was 93 % of control, the T/C (dose: 20.0 mg/kg/injection, schedule: Q04DX003 (ip), vehicle: Klucel (hydroxypropylcellulose) (HPC)) was 117 % of control and the T/C (dose: 24.0 mg/kg/injection, schedule: Q01DX001 (ip), vehicle: saline) was 111 % of control. For the same compound, the T/C (dose: 24.0 mg/kg/injection, schedule: Q07DX Z (ip), vehicle: saline) was 158 % of control, the T/C (dose: 35.0 mg/kg/injection, schedule: Q01DX001 (ip), vehicle: saline) was 122 % of control and the T/C (dose: 50.0 mg/kg/injection, schedule: Q07DX Z (ip), vehicle: saline) was 100 % of control. The T/C (dose: 125.0 micrograms/kg/injection, schedule: Q01DX001 (ip), vehicle: saline) was 103 % of control, the T/C (dose: 125.0 micrograms/kg/injection, schedule: Q01DX Z (ip), vehicle: saline) was 107 % of control and the T/C (dose: 156.0 micrograms/kg/injection, schedule: Q01DX001 (ip), vehicle: saline) was 107 % of control. For the same compound, the T/C (dose: 187.0 micrograms/kg/injection, schedule: Q01DX001 (ip), vehicle: saline) was 103 % of control, the T/C (dose: 250.0 micrograms/kg/injection, schedule: Q01DX Z (ip), vehicle: saline) was 101 % of control and the T/C (dose: 281.0 micrograms/kg/injection, schedule: Q01DX001 (ip), vehicle: saline) was 105 % of control. For the same compound, the T/C (dose: 310.0 micrograms/kg/injection, schedule: Q01DX001 (ip), vehicle: saline) was 101 % of control, the T/C (dose: 421.0 micrograms/kg/injection, schedule: Q01DX001 (ip), vehicle: saline) was 116 % of control and the T/C (dose: 500.0 micrograms/kg/injection, schedule: Q01DX Z (ip), vehicle: saline) was 107 % of control. The T/C (dose: 620.0 micrograms/kg/injection, schedule: Q01DX001 (ip), vehicle: saline) was 107 % of control, the T/C (dose: 1250.0 micrograms/kg/injection, schedule: Q01DX001 (ip), vehicle: saline) was 110 % of control and the T/C (dose: 2000.0 micrograms/kg/injection, schedule: Q01DX Z (ip), vehicle: saline) was 222 % of control. For the same compound, the T/C (dose: 4000.0 micrograms/kg/injection, schedule: Q01DX Z (ip), vehicle: saline) was 205 % of control.
